Test results taken from patent publication US20230139171A1 (SITA Information Networking Computing UK Limited, priority 2019, published 2023).

Columns and labels:
Format in all cases: cell-based
[1] = target: T1, human TLR7 (Homo sapiens, UniProt Q9NYK1); assay: TLR7 inhibition reporter assay (HEK-Blue cells, SEAP reporter, gardiquimod stimulation); details: HEK-Blue cells overexpressing human TLR7, SEAP reporter, gardiquimod 7.5 μM; read-out: TLR7 IC50
T1 construct: host or cells: HEK-Blue cells
T1 sequence (Q9NYK1 27-1049): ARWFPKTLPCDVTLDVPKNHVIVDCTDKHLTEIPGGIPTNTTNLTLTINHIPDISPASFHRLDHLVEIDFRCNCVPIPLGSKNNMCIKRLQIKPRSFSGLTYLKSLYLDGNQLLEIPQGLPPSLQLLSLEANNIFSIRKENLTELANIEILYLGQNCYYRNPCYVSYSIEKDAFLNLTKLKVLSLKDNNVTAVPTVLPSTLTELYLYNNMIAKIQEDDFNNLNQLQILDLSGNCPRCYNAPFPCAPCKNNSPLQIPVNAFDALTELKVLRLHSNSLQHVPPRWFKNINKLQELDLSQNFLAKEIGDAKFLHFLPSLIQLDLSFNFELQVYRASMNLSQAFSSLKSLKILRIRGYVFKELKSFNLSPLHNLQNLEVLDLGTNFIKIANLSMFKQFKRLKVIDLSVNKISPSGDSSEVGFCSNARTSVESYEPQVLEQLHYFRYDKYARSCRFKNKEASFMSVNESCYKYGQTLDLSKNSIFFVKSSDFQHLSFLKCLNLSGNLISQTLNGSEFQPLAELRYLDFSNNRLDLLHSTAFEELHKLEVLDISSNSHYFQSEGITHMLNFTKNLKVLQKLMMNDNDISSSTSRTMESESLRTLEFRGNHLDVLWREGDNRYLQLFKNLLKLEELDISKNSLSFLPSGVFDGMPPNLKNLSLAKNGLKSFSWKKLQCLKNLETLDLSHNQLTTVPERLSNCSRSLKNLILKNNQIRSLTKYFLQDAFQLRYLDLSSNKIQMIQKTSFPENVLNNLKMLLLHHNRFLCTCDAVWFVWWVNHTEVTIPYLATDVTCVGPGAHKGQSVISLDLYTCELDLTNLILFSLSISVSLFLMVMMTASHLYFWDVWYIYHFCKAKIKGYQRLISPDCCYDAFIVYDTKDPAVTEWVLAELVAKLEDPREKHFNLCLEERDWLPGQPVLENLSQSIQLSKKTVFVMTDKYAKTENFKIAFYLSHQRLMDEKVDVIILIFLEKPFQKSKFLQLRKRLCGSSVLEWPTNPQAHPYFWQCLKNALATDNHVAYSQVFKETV
Outline: (§1)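 Screening used HEK-Blue cells overexpressing one human TLR (7, 8 or 9) and an IFN-β minimal promoter–NF-κB/AP-1 SEAP construct. Stimulation lasted 22 h at 37 °C with receptor-specific agonist: gardiquimod, R848 or ODN2006 at 7.5 μM, 15.9 μM and 5 nM.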

[2] = target: T2, human TLR9 (Homo sapiens, UniProt Q9NR96); assay: TLR9 inhibition reporter assay (HEK-Blue cells, SEAP reporter, ODN2006 stimulation); details: HEK-Blue cells overexpressing human TLR9, SEAP reporter, ODN2006 5 nM
T2 construct: host or cells: HEK-Blue cells
T2 sequence (Q9NR96 26-1032): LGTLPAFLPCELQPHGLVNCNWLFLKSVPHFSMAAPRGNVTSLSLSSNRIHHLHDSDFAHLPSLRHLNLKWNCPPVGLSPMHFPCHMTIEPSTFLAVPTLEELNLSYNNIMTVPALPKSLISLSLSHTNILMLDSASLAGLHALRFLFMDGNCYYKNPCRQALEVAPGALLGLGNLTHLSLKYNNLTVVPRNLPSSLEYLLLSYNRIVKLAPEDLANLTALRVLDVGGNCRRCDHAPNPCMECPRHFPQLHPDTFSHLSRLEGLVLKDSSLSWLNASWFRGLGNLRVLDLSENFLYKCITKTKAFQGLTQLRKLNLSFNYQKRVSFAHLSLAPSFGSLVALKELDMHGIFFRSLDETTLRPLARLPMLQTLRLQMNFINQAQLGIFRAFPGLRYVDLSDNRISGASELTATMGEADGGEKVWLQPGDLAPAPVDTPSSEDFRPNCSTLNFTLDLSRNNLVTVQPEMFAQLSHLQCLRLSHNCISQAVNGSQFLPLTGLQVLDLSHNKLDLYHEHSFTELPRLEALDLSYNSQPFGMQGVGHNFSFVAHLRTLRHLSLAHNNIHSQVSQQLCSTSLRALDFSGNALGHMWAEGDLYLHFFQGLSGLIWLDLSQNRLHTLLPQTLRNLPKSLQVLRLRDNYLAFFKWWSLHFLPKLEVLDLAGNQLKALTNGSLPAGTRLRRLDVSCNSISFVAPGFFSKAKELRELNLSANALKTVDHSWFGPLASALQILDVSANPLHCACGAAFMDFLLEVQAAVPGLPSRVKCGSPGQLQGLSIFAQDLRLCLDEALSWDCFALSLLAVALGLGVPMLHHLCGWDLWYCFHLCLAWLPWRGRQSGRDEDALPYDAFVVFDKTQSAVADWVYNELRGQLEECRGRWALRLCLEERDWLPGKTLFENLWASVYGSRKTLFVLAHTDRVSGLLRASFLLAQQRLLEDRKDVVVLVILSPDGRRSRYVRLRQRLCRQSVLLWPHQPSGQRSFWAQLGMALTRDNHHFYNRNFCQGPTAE
Outline: as §1

[3] = target: T3, human TLR8 (Homo sapiens, UniProt Q9NR97); assay: TLR8 inhibition reporter assay (HEK-Blue cells, SEAP reporter, R848 stimulation); details: HEK-Blue cells overexpressing human TLR8, SEAP reporter, R848 15.9 μM; read-out: TLR8 IC50
T3 construct: host or cells: HEK-Blue cells
T3 sequence (Q9NR97 27-1041): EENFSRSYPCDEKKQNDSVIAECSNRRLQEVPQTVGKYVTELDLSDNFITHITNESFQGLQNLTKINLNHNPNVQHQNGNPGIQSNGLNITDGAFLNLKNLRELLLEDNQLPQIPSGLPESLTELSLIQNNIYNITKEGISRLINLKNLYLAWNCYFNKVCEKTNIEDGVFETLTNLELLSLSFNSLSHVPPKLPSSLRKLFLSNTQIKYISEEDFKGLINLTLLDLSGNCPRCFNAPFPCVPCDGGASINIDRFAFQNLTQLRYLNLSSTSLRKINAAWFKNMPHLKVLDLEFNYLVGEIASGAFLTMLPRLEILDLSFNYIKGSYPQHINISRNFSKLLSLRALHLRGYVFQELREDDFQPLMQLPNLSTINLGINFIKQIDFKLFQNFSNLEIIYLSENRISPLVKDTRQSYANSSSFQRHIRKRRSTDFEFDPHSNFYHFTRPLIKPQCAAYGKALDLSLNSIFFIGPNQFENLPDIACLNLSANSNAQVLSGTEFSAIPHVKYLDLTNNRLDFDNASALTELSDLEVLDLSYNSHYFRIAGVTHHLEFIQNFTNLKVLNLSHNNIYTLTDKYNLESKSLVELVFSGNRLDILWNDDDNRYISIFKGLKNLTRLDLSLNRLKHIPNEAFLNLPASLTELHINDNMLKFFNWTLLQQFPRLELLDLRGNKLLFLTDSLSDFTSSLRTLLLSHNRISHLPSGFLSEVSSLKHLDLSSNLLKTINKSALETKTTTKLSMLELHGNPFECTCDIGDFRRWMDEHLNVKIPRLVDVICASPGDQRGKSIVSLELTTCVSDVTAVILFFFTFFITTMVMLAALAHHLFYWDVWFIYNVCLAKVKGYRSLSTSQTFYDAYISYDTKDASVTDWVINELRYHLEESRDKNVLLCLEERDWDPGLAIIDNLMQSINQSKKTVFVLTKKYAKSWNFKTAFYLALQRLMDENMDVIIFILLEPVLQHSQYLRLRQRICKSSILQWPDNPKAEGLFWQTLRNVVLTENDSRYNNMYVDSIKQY
Outline: as §1

| SMILES | IC50 [1] [nM] | IC50 [2] [µM] | IC50 [3] [nM] |
| --- | --- | --- | --- |
| CC(C)c1c(-c2ccc(C#N)c3ncccc23)[nH]c2sc(C3CCN(CC(=O)N(C)C)CC3)nc12 [Example 40, 2-(4-(5-(8-cyanoquinolin-5-yl)-6-isopropyl-4H-pyrrolo[3,2-d]thiazol-2-yl)piperidin-1-yl)-N,N-dimethylacetamide] | 29.9 | 18.9 | 31.1 |
| Cc1c(-c2[nH]c3sc(N4C[C@@H](C)N(C(=O)CN(C)C)C[C@@H]4C)nc3c2C(C)C)cn2ncnc2c1C [Example 341, 1-((2R,5S)-4-(5-(7,8-dimethyl-[1,2,4]triazolo[1,5-a]pyridin-6-yl)-6-isopropyl-4H-pyrrolo[3,2-d]thiazol-2-yl)-2,5-dimethylpiperazin-1-yl)-2-(dimethylamino) ethan-1-one] | 7.86 | 16.5 | 9 |
| Cc1c(-c2[nH]c3sc(C(=O)NCC(C)(C)N4CCOCC4)nc3c2C(C)C)cn2ncnc2c1C [Example 374, 5-(7,8-dimethyl-[1,2,4]triazolo[1,5-a]pyridin-6-yl)-6-isopropyl-N-(2-methyl-2-morpholinopropyl)-4H-pyrrolo[3,2-d]thiazole-2-carboxamide] | 11.7 | 41.5 | 9.33 |
| COc1cc(-c2[nH]c3nc(C4CCNCC4)sc3c2C(C)C)cn2ncnc12 [Example 410, 6-isopropyl-5-(8-methoxy-[1,2, 4]triazolo[1,5-a]pyridin-6-yl)-2-(piperidin-4-yl)-4H-pyrrolo[2,3-d]thiazole] | 130 | 6.8 | 560 |
| COc1cc(-c2[nH]c3sc(C4CCN(C(=O)CN(C)C)CC4)nc3c2C(C)C)cn2ncnc12 [Example 6, 2-(dimethylamino)-1-(4-(6-isopropyl-5-(8-methoxy-[1,2,4]triazolo[1,5-a]pyridin-6-yl)-4H-pyrrolo[3,2-d]thiazol-2-yl)piperidin-1-yl)ethan-1-one] | 2.05 | 1.1 | 20.9 |
| COc1cc(-c2[nH]c3sc(C4CCC(NC56CC(C5)C6)CC4)nc3c2C(C)C)cn2ncnc12 (single isomer, unassigned) [Example 168, N-(4-(6-isopropyl-5-(8-methoxy-[1,2,4]triazolo[1,5-a]pyridin-6-yl)-4H-pyrrolo[3,2-d]thiazol-2-yl)cyclohexyl)bicyclo[1.1.1]pentan-1-amine] | 6.58 | > 50 | 33.9 |
| CCc1c(-c2cc(OC)c3ncnn3c2)[nH]c2sc(C3CCC(NC4COC4)CC3)nc12 (single isomer, unassigned) [Example 272, N-(4-(6-ethyl-5-(8-methoxy-[1,2,4]triazolo[1,5-a]pyridin-6-yl)-4H-pyrrolo[3,2-d]thiazol-2-yl)cyclohexyl) oxetan-3-amine] | 137 | > 50 | 122 |

Results, then the molecule that gave them:

| IC50 [1] [nM] | IC50 [2] [µM] | IC50 [3] [nM] | SMILES |
| --- | --- | --- | --- |
| 2.27 | 6.56 | 5.82 | Cc1cc(-c2[nH]c3sc(C4CCNCC4)nc3c2C(C)C)cn2ncnc12 [Example 2, 6-isopropyl-5-(8-methyl-[1,2,4]triazolo[1,5-a]pyridin-6-yl)-2-(piperidin-4-yl)-4H-pyrrolo[3,2-d]thiazole] |
| 3.01 | 32.8 | 1.43 | Cc1c(-c2[nH]c3sc(C4CCN(CC(N)=O)CC4)nc3c2C(C)C)cn2ncnc2c1C [Example 58, 2-(4-(5-(7,8-dimethyl-[1,2,4]triazolo[1,5-a]pyridin-6-yl)-6-isopropyl-4H-pyrrolo[3,2-d]thiazol-2-yl)piperidin-1-yl)acetamide] |
| 8.65 | 14.3 | 10.3 | Cc1c(-c2[nH]c3sc(C4CCC(N(C)C(C)C)CC4)nc3c2C(C)C)cn2ncnc2c1C (single isomer, unassigned) [Example 223, 4-(5-(7,8-dimethyl-[1,2,4]triazolo[1,5-a]pyridin-6-yl)-6-isopropyl-4H-pyrrolo[3,2-d]thiazol-2-yl)-N-isopropyl-N-methylcyclohexan-1-amine] |
| 1.05 | 16.6 | 1.01 | Cc1c(-c2[nH]c3sc(C4CCC(N5CC(O)(C(F)(F)F)C5)CC4)nc3c2C(C)C)cn2ncnc2c1C (single isomer, unassigned) [Example 235, 1-(4-(5-(7,8-dimethyl-[1,2,4]triazolo[1,5-a]pyridin-6-yl)-6-isopropyl-4H-pyrrolo[3,2-d]thiazol-2-yl)cyclohexyl)-3-(trifluoromethyl)azetidin-3-ol] |
| 37.4 | 16.4 | 11.9 | Cc1cc2ncnn2cc1-c1[nH]c2sc(C3CCC(NCC(C)(C)O)CC3)nc2c1C(C)C (single isomer, unassigned) [Example 157, 1-((4-(6-isopropyl-5-(7-methyl-[1,2,4]triazolo[1,5-a]pyridin-6-yl)-4H-pyrrolo[3,2-d]thiazol-2-yl)cyclohexyl)amino)-2-methylpropan-2-ol] |
